Legend:
[1] = system: GPR65 KO HeLa cells + pLX empty vector; experiment: cAMP detection, GPR65 KO HeLa + empty pLX vector (null control); format: cell-based, human; conditions: HeLa GPR65 KO + pLX, pH 7.1, 30 min, normalized to DMSO and 100 μM forskolin
Procedure: (§1) The Lance Ultra cAMP Kit (PerkinElmer, TRF0264) was used for cAMP detection, and included the following reagents: ULight anti-cAMP antibody, Eu-cAMP tracer, 7.5% BSA Stabilizer solution, and cAMP detection buffer. Stimulation buffer was prepared as described by the kit manufacturer as follows: Hanks buffered saline solution (HBSS, Life Technologies, 14025-126) containing 0.5 mM IBMX (3-isobutyl-1-methylxanthine, Sigma-Aldrich, I7018) and buffered with 1 M Hepes (15630-080). Stimulation buffer was then adjusted to pH 7.1 using 12 N HCl. HeLa cells were lifted using Versene and then suspended at 2.5 × 10^5 cells/ml in stimulation buffer. Cells were then plated at 20 μl per well (5000 cells per well) in white, opaque OptiPlate 384-well MicroPlates (PerkinElmer, 6007299) using a Thermo Fisher Scientific Combi liquid dispenser. Compounds, stored at 5 mM in DMSO for the primary screen, or in a range of concentrations from 39 μM to 20 mM for dose curves, were transferred by the CyBio CyBi-Well Vario pin transfer tool with 100-nl pins (V&P FP1NS50H, 50-nl slot, 0.457-mm diameter, hydrophobic coated), into each assay well, 100 nl per well for a final assay concentration of 25 μM for the primary screen, or 195 nM to 100 μM for dose curves. Assay plates were then incubated at RT for 30 min. Eu-cAMP tracer was diluted 1:33 into detection buffer and the final solution then distributed into assay wells, 5 μl per well. ULight anti-cAMP antibody was diluted 1:100 into detection buffer, then distributed into assay wells, also 5 μl per well. Assay plates were then incubated at RT in the dark for 1 hour. Eu-cAMP tracer and Förster resonance energy transfer (FRET) emissions were then read using a PerkinElmer EnVision Multimode plate reader (ENVISION21040010), exciting each well at 320 nm [UV2 (TRF) 320 filter] and reading emissions at 615 nm (Europium 615 filter) and 665 nm (APC665 filter). Data analysis was performed using Genedata Screener and GraphPad Prism.
(§2) HeLa KO cell lines were generated using the px330 plasmid CRISPR system as previously described ([18]). Briefly, HeLa cells were transfected with a Cas9 vector containing a gene-specific single-guide RNA to target the GPR65 coding exon. Forty-eight to 72 hours after transfection, single clones were obtained through limiting dilution and then sequenced to validate the KO. Reconstituted cell lines were produced by transducing KO cells with empty lentivirus or lentivirus containing hGPR65 or mGPR65. After 48 hours, cells were treated with puromycin (3 μg/ml; InvivoGen, ant-pr-1) and resistant cells were used in experiments.

[2] = target: T1, hGPR65 (Homo sapiens, UniProt Q8IYL9); experiment: cAMP detection (Lance Ultra), GPR65 KO HeLa reconstituted with hGPR65; 21K screen dose confirmation; format: cell-based; conditions: HeLa GPR65 KO + hGPR65, pH 7.1, 30 min, normalized to DMSO and 100 μM forskolin; read-out: WT EC50
T1 construct: expressed in transfected cells; host or cells: HeLa (ATCC CCL-2), lentiviral transduction, pLX317
Procedure: as §1, §2

T1 sequence (Q8IYL9 whole entry): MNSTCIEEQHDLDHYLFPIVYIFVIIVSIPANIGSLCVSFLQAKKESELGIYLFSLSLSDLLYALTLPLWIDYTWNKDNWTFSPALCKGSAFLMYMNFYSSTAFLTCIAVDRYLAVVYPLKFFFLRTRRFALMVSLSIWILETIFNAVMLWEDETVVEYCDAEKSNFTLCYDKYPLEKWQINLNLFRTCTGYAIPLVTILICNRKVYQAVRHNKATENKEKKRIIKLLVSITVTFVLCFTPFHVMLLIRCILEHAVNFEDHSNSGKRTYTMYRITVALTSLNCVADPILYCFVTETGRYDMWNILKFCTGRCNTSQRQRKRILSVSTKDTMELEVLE

SMILES | EC50 [1] | EC50 [2]
CC(Sc1nc2ncnc(N)c2[nH]1)C(=O)O (centres unmarked) [BRD-A18106607-001-02-5] | 6.4 µM | 6 µM
Cc1cnccc1CN1CC(C(=O)O)CC1=O (centres unmarked) [BRD-A19095755-001-02-9] | 16.9 µM | 20.1 µM
CCCCC(CC)C(=O)Oc1ccc2c(c1)oc(=O)c1ccccc12 (centres unmarked) [BRD-A19872532-001-02-1] | > 100 µM | > 100 µM
CCN1CCCc2cc(-c3cncn3C(C)CN3CCOCC3)ccc21 (centres unmarked) [BRD-A40378740-001-02-0] | > 100 µM | > 100 µM
CC(=O)N1CCCC(CCCc2ccncc2)(C(=O)O)C1 (centres unmarked) [BRD-A44875014-001-02-0] | 14.7 µM | 13.2 µM
CN1CCN(c2ccnc3ccccc23)CC1C(=O)O (centres unmarked) [BRD-A45312230-001-02-1] | 1.3 µM | 1.2 µM
CC(NC(=O)c1ccc2ncccc2c1)c1cc(=O)[nH]c(N2CCN(C)CC2)n1 (centres unmarked) [BRD-A49179268-001-02-5] | 67.5 µM | 83.4 µM
Clc1ccc2c(N3CCCC4(CCNC4)C3)ccnc2c1 (centres unmarked) [BRD-A50085437-001-02-6] | 33.5 µM | 26.2 µM
Cc1cc(C)n(CC(O)CN(Cc2ccco2)Cc2cccc3ncccc23)n1 (centres unmarked) [BRD-A63170499-001-02-6] | > 100 µM | > 100 µM
O=S1(=O)CCC(Cn2cc(-c3ccnc4ccccc34)nn2)C1 (centres unmarked) [BRD-A69528226-001-02-9] | 17 µM | 19.9 µM
Cc1nc(C2CCCNC2)cc(N(C)Cc2cccc3cnccc23)n1 (centres unmarked) [BRD-A78843635-001-02-6] | 95.8 µM | > 100 µM
O=C1CC(N2CCN(c3ncccn3)CC2)C(=O)N1c1ccccc1 (centres unmarked) [BRD-A87117975-001-02-2] | 54.8 µM | 71.1 µM
CN(C)CCOC(=O)C1CC2=C(CCCC2(C)C)CC1C(=O)O (centres unmarked) [BRD-A91973386-001-02-5] | 70.7 µM | 59.6 µM
COc1ccc(S(=O)(=O)N2C[C@@H](N)[C@H](c3cn(C)c4cnccc34)C2)cc1 [BRD-K00063734-001-02-2] | 63.2 µM | 73.6 µM
O=C(O)CCSCCc1ccncc1 [BRD-K06534048-001-02-7] | 29.3 µM | 37.8 µM
CS(=O)(=O)N1CCN(c2ccnc3cc(Cl)ccc23)CC1 [BRD-K06900104-001-09-6] | 23 µM | 27.5 µM
Cc1cnc(N)c(C(=O)C2CCN(C(=O)c3cnc(C)nc3C)CC2)c1 [BRD-K07158347-001-02-2] | 17 µM | 18.3 µM
Nc1cccnc1Sc1nc2cccnc2s1 [BRD-K10062067-001-02-9] | > 100 µM | > 100 µM
Nc1ccc2c(C(F)(F)F)cc(=O)oc2c1 [BRD-K20841137-001-08-7] | > 100 µM | > 100 µM
COc1cc(Br)c(-c2cc3ccccc3oc2=O)cc1OC [BRD-K22294093-001-02-2] | < 10 µM | < 10 µM
CCN1C[C@@H](COC)[C@]2(CCN(C(=O)N3CCCC3)C2)C1 [BRD-K23021624-001-01-8] | > 100 µM | > 100 µM
COC(=O)Nc1nc2ccc(-c3n[nH]c(=O)c4ccccc34)cc2[nH]1 [BRD-K25806464-001-09-6] | < 10 µM | < 10 µM
O=C(c1ccc2nc[nH]c2c1)N1CCC(CCOc2ccccc2)(C(=O)O)CC1 [BRD-K25972060-001-03-7] | 4.9 µM | 4.6 µM
O=c1c(-c2ccccc2)nnc2sc(-c3ccc4c(c3)OCCO4)nn12 [BRD-K26812102-001-02-6] | > 100 µM | > 100 µM
O=C(c1ccco1)N1CCN(c2ccnc3cc(Cl)ccc23)CC1 [BRD-K27679143-001-08-6] | 15.6 µM | 18.3 µM

SMILES | EC50 [1] | EC50 [2]
Cn1ccc2c(-c3ccc(C(=O)N4CCCC4)cn3)ccnc21 [BRD-K29607656-001-02-7] | > 100 µM | > 100 µM
Cn1ccc2c(-c3cccc(=O)[nH]3)ccnc21 [BRD-K33217544-001-03-3] | 89.8 µM | 91.8 µM
O=C(CN1CCC(c2ccncc2)CC1)N1CCOCC1 [BRD-K33295678-001-02-9] | > 100 µM | > 100 µM
CCCOc1cc2c(cc1CN(C)Cc1cc(=O)[nH]c3ccccc13)OCO2 [BRD-K37392365-001-02-8] | > 100 µM | > 100 µM
N#Cc1cnc(SCc2cc(=O)[nH]c3ccccc23)nc1N [BRD-K39252032-001-02-5] | 67.6 µM | > 100 µM
O=C(CSc1ncnc2sc3c(c12)CCCC3)Nc1nccs1 [BRD-K40136431-001-02-4] | > 100 µM | –
Cn1c(=O)n(C)c2cc(NC(=O)CSc3ncc(C#N)c(N)n3)ccc21 [BRD-K40764399-001-02-3] | > 100 µM | > 100 µM
O=C(O)CCCc1nc(-c2cccnc2)no1 [BRD-K41365409-001-02-6] | 35.7 µM | 41.3 µM
COc1ccc(NC(=O)CSc2nc3ccc(C)cc3cc2C#N)cc1 [BRD-K45250069-001-02-7] | > 100 µM | > 100 µM
O=C(O)C1CCN(c2ncnc3ccccc23)CC1 [BRD-K45393828-001-02-7] | 39.5 µM | 54.4 µM
COc1ccc(Nc2nnc(-c3ccc(C(N)=O)cc3)c3ccccc23)cc1 [BRD-K46612369-001-11-5] | > 100 µM | > 100 µM
c1ccc(-c2cc3ncnc(N4CCSCC4)c3s2)cc1 [BRD-K51028315-001-02-0] | > 100 µM | > 100 µM
CCc1cc(CC)c2sc3ccccc3c(=O)c2c1 [BRD-K51520769-001-02-7] | > 100 µM | > 100 µM
O=C(O)c1nccnc1C(=O)N1CCCN(c2c(Cl)cncc2Cl)CC1 [BRD-K53955368-001-02-8] | > 100 µM | > 100 µM
NC(=O)C1CCN(C(=O)CN2CCN(c3ccnc4cc(Cl)ccc34)CC2)CC1 [BRD-K56344229-001-02-1] | 12.5 µM | 15.6 µM
COC(=O)c1cc2c(s1)-c1cc(F)ccc1OC2 [BRD-K56384677-001-09-9] | 94.3 µM | 90 µM
CN(Cc1ccc2ncccc2c1)C(=O)[C@@H]1C[C@H](N)CN1C [BRD-K56675411-001-02-6] | 57.3 µM | 70.2 µM
Cc1nccn1-c1ccc(CN(Cc2cccnc2)C2CC(C)(C)NC(C)(C)C2)cc1 [BRD-K56921026-001-02-1] | 50.8 µM | 57 µM
O=C(CN1CCC(c2ccncc2)CC1)NCc1cccs1 [BRD-K63268990-001-02-0] | > 100 µM | > 100 µM
O=c1[nH]c2ccccc2c2oc(-c3ccccc3)nc12 [BRD-K66733191-001-02-7] | 71 µM | 91.2 µM
COc1ccc(C(=O)c2cn(CC(=O)Nc3nc4c(s3)CCCC4)c3cnccc23)cc1 [BRD-K74442183-001-02-5] | < 30 µM | < 30 µM
CC(C)CCn1c(Sc2nc3ccccc3s2)nc2c1c(=O)[nH]c(=O)n2C [BRD-K74743357-001-08-3] | 77.4 µM | –
O=C(Nc1cccc2nsnc12)c1sc2ccccc2c1Cl [BRD-K76966415-001-02-1] | < 30 µM | < 30 µM
O=C(Cn1nnc(-c2ccccc2NC(=O)c2ccccc2)n1)NC1CCCCC1 [BRD-K79778627-001-02-1] | 73.7 µM | > 100 µM
Cc1ccc(C(=O)Cn2c(=O)n(C(C)C)c3nc(-c4ccc(F)cc4)nc(C(N)=O)c32)cc1 [BRD-K81805280-001-02-6] | > 100 µM | > 100 µM

Reference: paper PMC11259170, “Small-molecule probe for IBD risk variant GPR65 I231L alters cytokine signaling networks through positive allosteric modulation” (Science Advances, 2024)
